The text below walks through data of ChEMBL document CHEMBL1151673, “Vasculyne, a new cytotoxic acetylenic alcohol from the marine sponge Cribrochalina vasculum” (1996).

The nature of experiment [1]: Cytotoxicity against human melanoma cells. It counts as functional. Particulars: Melanoma cell.
Experiment [2] is described as follows: Cytotoxicity against human colon cancer cells. In kind it is functional. The following applies: Cancer cell lines.
Setting [3] is: read-out: LC50 (the source's name).

SMILES strings stand for the structures. Converted amounts (≈) assume the structure as drawn.

For the compound `C#C[C@H](O)/C=C\CCCCCCCCCCCCCCCCCCCCCCCC/C=C/CCCCCCC/C=C/[C@@H](O)C#C` [VASCULYNE], the GI50 in experiment [1] and in experiment [2] was 0.2 µg/mL (≈ 0.321 µM) throughout. The TGI in experiment [1] and in experiment [2] was 0.7 µg/mL (≈ 1.12 µM) each time. The CC50 in experiment [1] (setting [3]) and in experiment [2] (setting [3]) was 6.7 µg/mL (≈ 10.8 µM) in each case.
